# Measurements reported in patent US20060166957A1, “Methods of treating obesity and related disorders using tellurium selenium compounds” (priority 2003, published 2006).
# Like-named read-outs stand apart in the source and are kept apart here.
# Tests used:
# [1] = test system: ob/ob mice; experiment: AS101 in drinking water of ob/ob mice in metabolic cages: body weight, food intake, blood glucose; assay type: in vivo
# Protocol: Female ob/ob mice (8 weeks old) were placed in metabolic cages and were given free drinking water and chow. After 48 h, one group of 3 mice (the Control group) continued to receive water and chow. A second group of 3 mice received drinking water containing AS 101 (7 mg/L) in addition to the standard chow. The experiment was continued for 18 days and body weights were measured daily. On the average the mice consumed about 1.5 ml of water per 24 h, corresponding to 10 microgram AS101 per mouse per day. This value corresponds to 0.25 mg/kg body weight per 24 h.
# On the average, food consumption was reduced by 26±7% (p<0.02, n=16, FIG. 2).
# On the last day of treatment, tail blood was withdrawn and blood glucose was determined in three control mice and three mice of the AS101 group.
# [2] = test system: liver tissue of ob/ob mice; experiment: Microscopic examination of liver tissue of ob/ob mice after 18 days of AS101 treatment; assay type: in vivo; conditions: 18 days AS101 treatment, vs control mice, FIG. 4
# Description: Following 18 days treatment of the ob/ob mice with AS101 as described in Example 1, the animals were sacrificed. Samples of liver tissue were taken, fixed with formaldehyde and tissue slices were examined microscopically (FIG. 4).
# [3] = test system: diet-induced obese C57BL/6 mice; experiment: Body weight of diet-induced obese C57BL/6 mice injected daily with AS101; assay type: in vivo
# Protocol: Since the obesity of ob/ob mice is of genetic origin, whereas obesity among human populations is largely due to excess eating over energy expenditure, the effect of AS101 on body weight was studied in diet-induced obese mice. Female mice were fed for 10 weeks with a high fat diet, resulting in moderate obesity (average weight 37 g). Mice were placed in metabolic cages and injected daily with either saline (Control group, 3 mice) or AS 101 (0.5 mg/kg body weight in saline, AS101 group, 3 mice). High fat diet was continued and the body weight was determined daily. […] Therefore, AS101 is an effective medicament for the treatment of diet-induced obesity.
# [4] = test system: Swiss 3T3-F442A murine pre-adipocytes; experiment: Differentiation of pre-adipocytes into mature adipocytes, oil red staining; assay type: cell-based; conditions: AS101 0.2 micrograms/ml, six days in DMEM with 10% FBS, oil red stain, FIG. 6
# Protocol: To gain insight on the mechanism by which AS101 affects the adipose tissue, its effect was studied on an in-vitro model of differentiation of pre-adipocytes into mature adipocytes. It should be clarified here that adipocytes are fully differentiated cells. […] Besides increase in cell volume, the only way to gain weight in vivo is by generating new adipocytes from pre-adipocytes by differentiation. Swiss 3T3-F442A murine pre-adipocytes were grown in DMEM (GIBCO, USA) with 10% calf serum. To induce differentiation into mature adipocytes, confluent cell cultures were maintained in DMEM supplemented with 10% fetal bovine serum (FBS) for six days, either in the presence or in the absence of AS101 (0.2 micrograms/ml). The cultures were then stained with oil red, which specifically stains the fat droplets within the cells.
# [5] = test system: 6-week-old mice; conditions: cited from earlier work
smiles,measurement,setting,value
"Cl[TeH]1(Cl)(Cl)OCCO1 [AS101, ammonium trichloro(dioxoethylene-O,O′)tellurate]",body weight gain,"[1]; female ob/ob mice, AS101 7 mg/L in drinking water (0.25 mg/kg body weight per 24 h), 18 days, vs Control group, FIG. 1",did not gain weight significantly
same,"reduction of food consumption, on the average","[1]; female ob/ob mice, AS101 7 mg/L in drinking water, daily food consumption, p<0.02, n=16, FIG. 2",26±7%
same,blood glucose,"[1]; ob/ob mice, tail blood on the last day of treatment (18 days), AS101 7 mg/L in drinking water, FIG. 3",statistically significant (p<0.05) reduction
same,number and size of adipocytes in liver tissue,[2],extensive reduction in the number of adipocytes and in their size
same,body weight,"[3]; female mice on high fat diet, AS101 0.5 mg/kg body weight in saline injected daily, vs saline control, FIG. 5",reduced significantly and continued to drop through the entire study
same,food intake,"[3]; normal mice rendered obese by high-fat diet, AS101 by daily injections",reduction of food intake
same,differentiation of pre-adipocytes into mature adipocytes (fat droplets),[4],inhibited the differentiation
same,LD50,[5],300 μg/25 g of body weight
same,LD50,[5]; same value re-expressed,12 mg/kg body weight
